Laboratory results published in patent US20230348394A1, “COMPOSITIONS AND METHODS FOR TREATING MUSCULAR DYSTROPHIES” (The Regents of the University of California, priority 2020, published 2023).

Legend:
mdx myotubes = experiment: Membrane stability assay (creatine kinase release after osmotic shock); format: cell-based, murine; conditions: for CK release after osmotic shock: 5 μM
Procedure: The membrane stability assay was modified from previously described methods. The solutions for osmotic shock were prepared from a base solution containing 5 mM HEPES, 5 mM KCl, 1 mM MgCl2, 5 mM NaCl, 1.2 mM CaCl2), and 1 mM glucose. Sucrose was added to the base solutions to reach osmolarities of 50, 80, 100, 280, and 300 mosmol. The actual osmolarity was determined using a VAPRO vapor pressure osmometer (Wescor Inc.) Myotubes were treated for 48 hours and at day 4 of differentiation were subjected to 20 mins of osmotic shock at 37° C. using 28.5 to 223.5 milliosmole (mosmol) solutions. The supernatant was collected and centrifuged to separate cell debris. Adherent cells were trypsinized and pelleted before lysis with water and 3 freeze-thaw cycles. The Creatine Kinase Assay (Sekisui Diagnostics) was used to measure creatine kinase (CK) levels in both the supernatant and lysate fractions. In a 96-well plate, 4 μl of each sample and 140 μl of reagent was loaded per well in triplicate. The U/L of CK was calculated as follows: (mOD/min)(total volume in mL)(dilution factor)/(6.22M-lcm-1)(light path in cm)(sample volume in mL). The percent CK release was calculated as follows: CKextracellular/(CKextracellular+CKintracellular)*100.
The assay entails subjecting myotubes to osmotic shock, which causes cell swelling and membrane damage, allowing for intracellular CK to be released from the cell into the surrounding medium (FIG. 5a).
To assess the effect of SSPN knockdown on membrane stability in the absence of any compound treatment, we transfected mdx myotubes with 24 and 48 nM of scramble and SSPN siRNA and subjected the cells to osmotic shock with 45 mosmol solutions. […] We treated mdx myotubes with 10 μM of OT-9 in parallel with 24 nM of scramble or SSPN siRNA for 48 hours prior to osmotic shock and discovered that depletion of SSPN increased the CK release from 6.5% to 8% (FIG. 5d).

SSPN mRNA = experiment: SSPN gene expression in C2C12, H2K WT and H2K mdx myoblasts; format: cell-based, murine; conditions: 24 hours, 1, 5 and 10 μM
Procedure: FIG. 9. OT-9 is effective in multiple myoblast lines. […] Myoblasts were treated for 24 hours with 1, 5, and 10 μM of OT-9 or PC1-36. Gene expression was normalized to β-actin and vehicle-treated cells (0.1% DMSO). Data represents individual replicates and mean value. n=3-6. SSPN, sarcospan; R.U., relative units. *p<0.05, **p<0.01, ***p<0.001, ****p<0.0001.
RNA from myotubes treated for 48 hrs was extracted from cells using Trizol-based (Thermo Fisher Scientific) phase separation, Chomczynski et al., Biotechniques. 1993; 15(3):532-4, 6-7. RNA concentrations were determined using a NanoDrop 1000 (Thermo Fisher Scientific) and 750 ng of RNA in a 20 Id reaction was reverse transcribed using iScript cDNA synthesis (Bio-Rad) with the following cycling conditions: 25° C. for 5 mins, 42° C. for 30 mins, 85° C. for 5 mins. For mouse qPCR, SsoFast EvaGreen Supermix (Bio-Rad), 400 nM of each optimized forward and reverse primer (SSPN F: 5′ […] 3′, SSPN R: 5′ […] 3′, BACT F: 5′ […] 3′, BACT R: 5′ […] 3′), and cDNA corresponding to 37.5 ng RNA were used to amplify cDNA measured by QuantStudio 5 Real-Time PCR System (Thermo Fisher Scientific) with the following reaction conditions: 55° C. for 2 mins, 95° C. for 2 mins, 40 cycles of 95° C. for 10 seconds and 62° C. for 30 seconds, and dissociation stage. […]

## CCN(CC)c1ccc2cc(C(=O)Nc3ccc(C(=O)N4CCCCCC4)cc3)c(=O)oc2c1 [OT-9]
Mdx myotubes; 48 hours, 28.5 mosmol solution
  CK release after osmotic shock: did not reduce CK release
Mdx myotubes; 48 hours, 45, 63 and 223.5 mosmol solutions
  CK release after osmotic shock: significantly reduced CK release
Mdx myotubes; 10 μM OT-9 with 24 nM SSPN siRNA, 48 hours
  CK release: 8%
Mdx myotubes; 10 μM OT-9 with 24 nM scramble siRNA, 48 hours
  CK release: 6.5%
SSPN mRNA
  SSPN mRNA levels in myoblasts: increased SSPN mRNA levels in all myoblast lines
